{"source": "patent US9546355B2", "about": "“Conditional replicating cytomegalovirus as a vaccine for CMV” (Merck Sharp & Dohme Corp., priority 2011, dated 2017)", "key": {"ARPE-19 cells": {"test_system": "ARPE-19 cells", "test": "Shield-1 concentration dependent progeny virus production (TCID50 assay)", "assay_type": "cell-based", "details": "rdCMV in ARPE-19 cells and other human primary cells", "description": "ARPE-19 cells were infected with the rdCMV viruses at a multiplicity of 0.01 PFU/cell for 1 h, washed twice with fresh medium, and incubated in the growth medium containing 0, 0.05, 0.1 0.5 or 2 μM of Shield-1. Seven days post infection, the cell free virus was collected, and virus titers were determined by TCID50 assay on ARPE-19 cells in the presence of 2 μM of Shield 1.\nVarying concentrations of Shld-1 were used in additional experiments to further assess viral replication in the presence or absence of Shld-1. ARPE-19 cells were infected by the gH expressing CMV that also contained a FKBP derivative fused to an essential protein at MOI of […]. After infection for 1 hour, the cells were washed twice with fresh medium to remove the Shld-1 from the inoculums. The inoculums were then added to ARPE-19 cells cultured in medium containing 0.05, 0.1, 0.5 or 2 μM of Shield-1. Seven days post infection, the cell-free progeny virus in the supernatant was collected and titrated on ARPE-19 cells supplemented with […] of Shield-1. Virus titers were determined by a 50% Tissue Culture Infective Dose (TCID50) assay. Briefly, this dilution assay quantifies the amount of virus required to kill 50% of infected hosts. […] After incubation, the percentage of cell death (i.e. infected cells) was manually observed and recorded for each virus dilution. […]"}, "FKBP": {"test_system": "FKBP", "details": "tighter binding; Clackson et al., 1998; cited from earlier work"}}, "data": [{"smiles": "CC[C@H](C(=O)N1CCCC[C@H]1C(=O)O[C@H](CCc1ccc(OC)c(OC)c1)c1cccc(OCCN2CCOCC2)c1)c1cc(OC)c(OC)c(OC)c1", "note": "[Shield-1]", "values": [{"measurement": "Molar concentration of Shield-1 in the culture medium required to sustain viral replication", "setting": "ARPE-19 cells", "value": "greater than 0.1 μM"}, {"measurement": "Binding to the F36V derivative compared to wild-type FKBP", "setting": "FKBP", "value": "about 1,000 fold"}]}]}
